pIC50, pKd: −log10 of the molar value.

The record followed here is US20260028338A1, “HETEROBIFUNCTIONAL COMPOUNDS AND METHODS OF TREATING DISEASE” (Halda Therapeutics OpCo, Inc., priority 2023, published 2026).

Assay [1] deals with T1, biotinylated BCL6 (5-129) (Homo sapiens, UniProt P41182).
T1 construct: biotinylated BCL6 (5-129) was diluted in 10 mM HEPES pH 7.4; biotin (biotinylated)
The assay is described as follows: SPR assay for binding affinity to BCL6. Conditions: Biacore 8K, 25° C., immobilized biotinylated BCL6 (5-129). As to the method:
Exemplary compounds were tested for ability to bind to B-cell lymphoma 6 (BCL6) protein.
Binding studies by surface plasmon resonance (SPR) were performed using a Biacore 8K (Cytiva) instrument at 25° C. Briefly, biotinylated BCL6 (5-129) was diluted in 10 mM HEPES pH 7.4, 150 mM NaCl, 0.05% Surfactant P20, 0.5 mM TCEP, 3% DMSO to 1-5 μg/mL and was immobilized on an SA sensor chip (Cytiva, BR100032), resulting in surface densities at 1000-3000 resonance units (RUs). Test compounds were serially diluted five times in the same buffer and were injected to the immobilized surface. Kinetic determination experiments were performed using single-cycle kinetics with 110-120 s contact time, 1000-4000 s dissociation time, 30 μL/min flow rate. Binding data were analyzed by using Biacore insight evaluation software to determine KD values for test compounds.

Assay [2] deals with T2, His-tagged BRD4 BD1 (46-168) (Homo sapiens, UniProt O60885).
T2 construct: His-tagged BRD4 BD1 (46-168) and biotinylated histone H4K5/8/12/16(Ac) peptide
The assay is described as follows: AlphaLISA competition assay, BRD4 BD1. The assay is classed as binding. Conditions: BRD4-BD1, AlphaLISA competition with biotinylated histone H4K5/8/12/16(Ac) peptide, 10 nM. A digest of the protocol:
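His-tagged BRD4 BD1 (46-168) and biotinylated H4K5/8/12/16(Ac) peptide, each 10 nM final, in 20 mM HEPES pH 7.5, 100 mM NaCl, 0.5 mM TCEP, 0.1% BSA, 0.02% CHAPS; compounds incubated 1 h at room temperature. Streptavidin acceptor and Ni-chelate donor beads added; IC50 from AlphaLISA signal.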

For assay [3], the target named is T3, His-tagged BRD4 BD2 (333-460) (Homo sapiens, UniProt O60885).
T3 construct: The same assay was developed for His-tagged BRD4 BD2 (333-460) and biotinylated histone H4K5/8/12/16(Ac) peptide
In words: AlphaLISA competition assay, BRD4 BD2. The assay is classed as binding. Conditions: BRD4-BD2, AlphaLISA competition with biotinylated histone H4K5/8/12/16(Ac) peptide, 20 nM. The gist of the method:
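His-tagged BRD4 BD2 (333-460) and biotinylated H4K5/8/12/16(Ac) peptide at 20 nM final, in 20 mM HEPES pH 7.5, 100 mM NaCl, 0.5 mM TCEP, 0.1% BSA, 0.02% CHAPS. Compounds incubated 1 h at room temperature, then streptavidin acceptor and nickel chelate donor beads added. IC50 derived from AlphaLISA signal.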

For assay [4], the system named is T-Rex 293 cell line SC cells having increased expression of BCL6 protein. In words: Cellular growth inhibition assay, T-Rex 293 SC cells with doxycycline (CellTiter-Glo). The assay is classed as cell-based. Conditions: T-Rex 293 SC cells with 10 ng/mL doxycycline (increased BCL6 expression), 72 hours, CellTiter-Glo 2.0.
Assay [5] concerns T-Rex 293 cell line SC cells lacking increased expression of BCL6 protein. The assay is described as follows: Cellular growth inhibition assay, T-Rex 293 SC cells without doxycycline (CellTiter-Glo). Conditions: T-Rex 293 SC cells not exposed to doxycycline (no increased BCL6 expression), 72 hours, CellTiter-Glo 2.0. The assay is classed as cell-based.
The next assay relates to Su-DHL-4 cell line. In words: Cellular growth inhibition assay, Su-DHL-4 cells (CellTiter-Glo). The assay is classed as cell-based. Conditions: Homo sapiens; Su-DHL-4 cell line (DLBCL), 72 hours, CellTiter-Glo 2.0. On the procedure:
(§1) Exemplary compounds were tested for ability to inhibit the proliferation of Su-DHL-4 and Farage cells. Su-DHL-4 and Farage cells are commercially available diffuse large B cell lymphoma cell lines (DLBCL).
(§2) Su-DHL-4 and Farage cells were purchased from American Type Cell Culture (ATCC Cat #CRL-2957/CRL-2630) and then seeded on poly-D-lysine coated, black clear-bottom 384-well plates at 3000/well in 25 μL Roswell Park Memorial Institute media (RPMI-1640) supplemented with 10% w/w Fetal bovine serum (FBS) and 1% w/w Pen-Strep. Pen-Strep is a commercially available mixture of penicillin G and streptomycin, which is used in mammalian cell culture media to prevent bacterial contamination. Roswell Park Memorial Institute media (RPMI-1640) supplemented with 10% w/w fetal bovine serum (FBS), and 1% w/w Pen-Strep is herein referred to as Treatment Medium. Following seeding of cells in the plates, the plates were spun at 300×g for 30 seconds, then equilibrated to room temperature for 30 minutes, and then deposited in a humidified tissue culture incubator maintained at 37° C. with 5% CO2.
(§3) At 24 hours after seeding of the cells, dilutions of test compound were prepared in DMSO and dissolved in Treatment Medium, to achieve a final DMSO concentration of 0.5% w/w, thereby providing the Test Compound Solution. A 25 μL aliquot of the Test Compound Solution was added to cells in the well plates. An equal volume of a solution containing DMSO and Treatment Medium was used as a negative control. Following treatment of cells with Test Compound Solution or said equal volume of a solution containing DMSO and Treatment Medium, the plates were spun at 300×g for 30 seconds, and then left in an incubator for 72 hours.
(§4) At the end of the treatment duration, cell viability was quantified with CellTiter-Glo 2.0 reagent (Promega Cat #G9243). For this purpose, plates were equilibrated to room temperature for 30 minutes, and then 25 μL of CellTiter-Glo 2.0 reagent was added to cells in the plate wells. Plates were then agitated on a shaker for two minutes at 500 rpm and subsequently incubated at room temperature for 10 minutes. Following incubation, the plates were spun at 3000×g for 30 seconds, then sealed with an optical adhesive cover, and luminescence readings were measured with an EnVision Plate Reader (Perkin Elmer).
(§5) Data was normalized using zero luminescence for baseline. A four-parameter non-linear regression curve fit was applied to dose-response data in GraphPad Prism data analysis software to determine the half-maximal growth inhibitory concentration (GI50) for each test compound.

A further assay has as its system Farage cell line. In words: Cellular growth inhibition assay, Farage cells (CellTiter-Glo). The assay is classed as cell-based. Conditions: Farage cell line (DLBCL), 72 hours, CellTiter-Glo 2.0. On the procedure: as §1, §2, §3, §4, §5

In assay [1], `CNC(=O)COc1cc2cc(Nc3nc(N4CCCC5(CC(Oc6ccc(C7=N[C@@H](Cc8ncco8)c8nnc(C)n8-c8sc(C)c(C)c87)cc6)C5)C4)ncc3Cl)ccc2n(C)c1=O` (stereo partly shown) [Compound I-27] had a pKd of less than 7.00. Further, the pIC50 is 7.30 to 8.30 in assay [2] and greater than 8.30 in assay [3]. In addition, the GI50 (in assay [4]; in assay [5]; with Su-DHL-4 cell line; with Farage cell line) was less than 500 nM throughout.

Turning to `CNC(=O)COc1cc2cc(Nc3nc(N4CCN(CCN(C)C5CC(Oc6ccc(C(C)(C)O)cc6-c6cn(C)c(=O)c7[nH]ccc67)C5)CC4)ncc3Cl)ccc2n(C)c1=O` (stereo not shown) [Compound I-18, 2-[[6-[[5-chloro-2-[4-[2-[[3-[4-(1-hydroxy-1-methyl-ethyl)-2-(6-methyl-7-oxo-1H-pyrrolo[2,3-c]pyridin-4-yl)phenoxy]cyclobutyl]-methyl-amino]ethyl]piperazin-1-yl]pyrimidin-4-yl]amino]-1-methyl-2-oxo-3-quinolyl]oxy]-N-methyl-acetamide], in assay [1], the pKd was 8.00 to 9.00. Besides, the pIC50 is 7.30 to 8.30 in assay [2] and greater than 8.30 in assay [3]. Also, the GI50 in assay [4] was less than 500 nM; in assay [5], 500 to 1500 nM; with Su-DHL-4 cell line, less than 500 nM; with Farage cell line it was less than 500 nM.

For the molecule `CNC(=O)COc1cc2cc(Nc3nc(N4CCC(CC5CN(CC6CC(Oc7ccc(C(C)(C)O)cc7-c7cn(C)c(=O)c8[nH]ccc78)C6)C5)CC4)ncc3Cl)ccc2n(C)c1=O` (stereo not shown) [Compound I-22, 2-[[6-[[5-chloro-2-[4-[[1-[[3-[4-(1-hydroxy-1-methyl-ethyl)-2-(6-methyl-7-oxo-1H-pyrrolo[2,3-c]pyridin-4-yl)phenoxy]cyclobutyl]methyl]azetidin-3-yl]methyl]-1-piperidyl]pyrimidin-4-yl]amino]-1-methyl-2-oxo-3-quinolyl]oxy]-N-methyl-acetamide], the pKd in assay [1] is 8.00 to 9.00. Also, the pIC50 in assay [2] and in assay [3] was greater than 8.30 each time. Besides, the GI50 (in assay [4]; in assay [5]; in the assay with Su-DHL-4 cell line; with Farage cell line) was less than 500 nM in each case.

With `CNC(=O)COc1cc2cc(Nc3nc(N4CCC(CCN5CCN(CCOc6cccc(Oc7ccc(C(C)(C)O)cc7-c7cn(C)c(=O)c8[nH]ccc78)c6)CC5)CC4)ncc3Cl)ccc2n(C)c1=O` [Compound I-24], the pKd in assay [1] was 8.00 to 9.00. Further, the pIC50 in assay [2] is 6.30 to 7.30; in assay [3] it was greater than 8.30. Also, the GI50 (in assay [4]; in assay [5]; in the assay with Su-DHL-4 cell line; with Farage cell line) was less than 500 nM throughout.

`CNC(=O)COc1cc2cc(Nc3nc(N4CCC5(CC4)CC(Oc4ccc(C6=N[C@@H](Cc7ncco7)c7nnc(C)n7-c7sc(C)c(C)c76)cc4)C5)ncc3Cl)ccc2n(C)c1=O` [Compound I-25, 2-[[6-[[5-chloro-2-[2-[4-[(9S)-4,5,13-trimethyl-9-(oxazol-2-ylmethyl)-3-thia-1,8,11,12-tetrazatricyclo[8.3.0.02,6]trideca-2 (6),4,7,10,12-pentaen-7-yl]phenoxy]-7-azaspiro[3.5]nonan-7-yl]pyrimidin-4-yl]amino]-1-methyl-2-oxo-3-quinolyl]oxy]-N-methyl-acetamide]: the pKd in assay [1] is less than 7.00. The values for the pIC50 in assay [2] and in assay [3] were 7.30 to 8.30 and greater than 8.30, respectively. Further, the GI50 (in assay [4]; in assay [5]; with Su-DHL-4 cell line; in the assay with Farage cell line) was less than 500 nM in each case.

For `CNC(=O)COc1cc2cc(Nc3nc(N4CCC(CCCN5CCN(CCN(C)[C@H]6C[C@H](Oc7ccc(C(C)(C)O)cc7-c7cn(C)c(=O)c8[nH]ccc78)C6)CC5)CC4)ncc3Cl)ccc2n(C)c1=O` [Compound I-19], the pKd in assay [1] is 8.00 to 9.00. Moreover, the negative-log IC50 (pIC50) was 7.30 to 8.30 in assay [2] and greater than 8.30 in assay [3]. The GI50 in assay [4] was less than 500 nM; in assay [5], 1500 to 3000 nM; in the assay on Su-DHL-4 cell line, less than 500 nM; in the assay on Farage cell line, less than 500 nM.

In turn, `CNC(=O)COc1cc2cc(Nc3nc(N4CCN(CCN5CCN(CCOc6cccc(Oc7ccc(C(C)(C)O)cc7-c7cn(C)c(=O)c8[nH]ccc78)c6)CC5)CC4)ncc3Cl)ccc2n(C)c1=O` [Compound I-23, 2-[[6-[[5-chloro-2-[4-[2-[4-[2-[3-[4-(1-hydroxy-1-methyl-ethyl)-2-(6-methyl-7-oxo-1H-pyrrolo[2,3-c]pyridin-4-yl)phenoxy]phenoxy]ethyl]piperazin-1-yl]ethyl]piperazin-1-yl]pyrimidin-4-yl]amino]-1-methyl-2-oxo-3-quinolyl]oxy]-N-methyl-acetamide] gave a pKd in assay [1] of 8.00 to 9.00. Further, the negative-log IC50 (pIC50) in assay [2] and in assay [3] was greater than 8.30 each time. For the same molecule, the GI50 is less than 500 nM in assay [4], 500 to 1500 nM in assay [5], less than 500 nM in the assay with Su-DHL-4 cell line and less than 500 nM with Farage cell line.
